Laboratory results taken from patent publication US20240368170A1, “CINNOLINE COMPOUNDS AND USES THEREOF” (Genentech, Inc., priority 2018, published 2024).
pKi: −log10 of the molar value.

Molecular target: HPK1 (Homo sapiens, UniProt Q92918)
Assay: HPK1 Lantha Binding Assay ("Lanth")
Details: L = Lanth
Method: Example B2: HPK1 Lantha Binding Assay (“Lanth”)
For the reference compound, the top concentration was 1 mM. To the plate was added 10 μL 2 mM staurosporine in wells J1-P1 and A24-H24. A 11 point 5-fold compound serial dilution was performed using the Bravo liquid handling platform. […] The compound plate was centrifuged at 2500 rpm for 1 min. From the compound plate was transferred 80n1 of the compounds into an assay plate using the Echo liquid handler system. One compound plate makes two assay plates. Each assay plate is sealed and stored in an N2 cabinet.
The following assay concentrations and times were used: 2 nM HPK1, 2 nM Eu-Anti-GST Ab, and 15 nM Tracer222, with 60 min incubation time.
For the binding assay, 4 μL 2×HPK1 and Eu-anti-GST antibody were added to each well of the assay plate using a Multidrop reagent dispenser. The solutions were incubated in a 23 C incubator for 1 h. To each well of the assay plate was added 4 μL 2× Tracer-222 using a Multidrop reagent dispenser. The solutions were again incubated in a 23° C. incubator for 1 h. The results of the assay were read using an Envision plate reader with the following parameters: TR_FRET, 340ex/615 and 665em; […].
Compound Ki was analyzed using Morrison ki fit model in XL-fit
[formula] [formula] • b. Parameters: • E=enzyme concentration • S=Tracer222 concentration, Kd=Tracer222 Kd
All measurements are reported using the same units (nM).
Exemplary compounds were tested in the binding assays.

Row | pKi | Compound
1 | 6.22 | N#Cc1ccncc1-c1cc(N)c2nnc(NC(=O)[C@@H]3C[C@@H]3F)cc2c1 (racemic) [Compound 4, (+/−)-cis-N-(8-Amino-6-(4-cyanopyridin-3-yl)cinnolin-3-yl)-2-fluorocyclopropanecarboxamide]
2 | 6.22 | Nc1cc(C2CC2)cc2cc(NC(=O)[C@@H]3C[C@@H]3F)nnc12 (racemic) [Compound 7, cis-N-(8-Amino-6-cyclopropylcinnolin-3-yl)-2-fluorocyclopropane carboxamide]
3 | 8.52 | Cc1cnsc1-c1cc(N)c2nnc(NC(=O)[C@@H]3C[C@@H]3F)cc2c1 (racemic) [Compound 15, (+/−)-cis-N-[8-Amino-6-(4-methylisothiazol-5-yl)cinnolin-3-yl]-2-fluoro-cyclopropanecarboxamide]
4 | 7.51 | Nc1cc(-c2cnccc2C2CC2)cc2cc(NC(=O)[C@@H]3C[C@@H]3F)nnc12 (racemic) [Compound 22, (+/−)-cis-N-(8-Amino-6-(4-cyclopropylpyridin-3-yl)cinnolin-3-yl)-2-fluorocyclopropanecarboxamide]
5 | 8.40 | Cc1c(N)cncc1-c1cc(N)c2nnc(NC(=O)[C@H]3C[C@@H]3C#N)cc2c1 (single isomer, unassigned) [Compound 23b]
6 | 7.24 | COc1ccncc1-c1cc(N)c2nnc(NC(=O)[C@@H]3C[C@@H]3F)cc2c1 [Compound 2a, (1S,2S)—N-(8-Amino-6-(4-methoxypyridin-3-yl)cinnolin-3-yl)-2-fluorocyclopropanecarboxamide]
7 | 6.36 | CCc1cc(N)c2nnc(NC(=O)[C@@H]3C[C@@H]3F)cc2c1 [Compound 6a, (1S,2S)-N-(8-Amino-6-ethylcinnolin-3-yl)-2-fluorocyclopropanecarboxamide]
8 | 7.55 | CC(C)OC(=O)Nc1cc2cc(-c3cnn(C)c3)cc(N)c2nn1 [Compound 9, Isopropyl N-[8-amino-6-(1-methylpyrazol-4-yl)cinnolin-3-yl]carbamate]
9 | 7.19 | Cn1cc(-c2cc(N)c3nnc(NC(=O)N4CCCC4)cc3c2)cn1 [Compound 10, N-[8-Amino-6-(1-methylpyrazol-4-yl)cinnolin-3-yl]pyrrolidine-1-carboxamide]
10 | 6.59 | Cc1ccncc1-c1cc(C)c2nnc(NC(=O)C3CC3)cc2c1 [Compound 24, N-(8-Methyl-6-(4-methylpyridin-3-yl)cinnolin-3-yl)cyclopropanecarboxamide]

More lines, now with the values behind:

Row | Compound | pKi
11 | Cn1cc(-c2cc(N)c3nnc(NC(=O)[C@@H]4C[C@H]4C#N)cc3c2)cn1 (racemic) [Compound 19, (+/−)-trans-N-(8-Amino-6-(1-methyl-1H-pyrazol-4-yl)cinnolin-3-yl)-2-cyanocyclopropanecarboxamide] | 7.85
12 | CCc1ccncc1-c1cc(N)c2nnc(NC(=O)[C@@H]3C[C@H]3C#N)cc2c1 (racemic) [Compound 20, (+/−)-trans-N-(8-Amino-6-(4-ethylpyridin-3-yl)cinnolin-3-yl)-2-cyanocyclopropanecarboxamide] | 7.89
13 | CCc1ccncc1-c1cc(N)c2nnc(NC(=O)[C@@H]3C[C@@H]3F)cc2c1 (racemic) [Compound 21, (+/−)-cis-N-(8-Amino-6-(4-ethylpyridin-3-yl)cinnolin-3-yl)-2-fluorocyclopropanecarboxamide] | 8.40
14 | Cc1c(N)cncc1-c1cc(N)c2nnc(NC(=O)[C@@H]3C[C@H]3C#N)cc2c1 (single isomer, unassigned) [Compound 23a] | 9.15
15 | Cc1cc(N)ncc1-c1cc(N)c2nnc(NC(=O)[C@@H]3C[C@@H]3F)cc2c1 [Compound 5a, (1S,2S)—N-(8-Amino-6-(6-amino-4-methylpyridin-3-yl)cinnolin-3-yl)-2-fluorocyclopropanecarboxamide] | 7.82
16 | CCc1ccncc1-c1cc(N)c2nnc(NC(=O)NC(C)C)cc2c1 [Compound 11, 1-[8-Amino-6-(4-ethyl-3-pyridyl)cinnolin-3-yl]-3-isopropyl-urea] | 8.10
17 | Cc1cnccc1-c1cc(N)c2nnc(NC(=O)[C@@H]3C[C@@H]3F)cc2c1 [Compound 17a, (1S,2S)—N-(8-Amino-6-(3-methylpyridin-4-yl)cinnolin-3-yl)-2-fluorocyclopropanecarboxamide] | 7.28
18 | Cn1cc(-c2cc(N)c3nnc(NC(=O)[C@@H]4C[C@@H]4F)cc3c2)cn1 [Compound 18a, (1S,2S)—N-(8-Amino-6-(1-methyl-1H-pyrazol-4-yl)cinnolin-3-yl)-2-fluorocyclopropanecarboxamide] | 7.82
19 | Cc1ccncc1-c1cc(N)c2nnc(NC(=O)C3CC3)cc2c1 [Compound 25, N-(8-Amino-6-(4-methylpyridin-3-yl)cinnolin-3-yl)cyclopropanecarboxamide] | 8.72
20 | Cc1ccncc1-c1cc(Cl)c2nnc(NC(=O)C3CC3)cc2c1 [Compound 26, N-(8-Chloro-6-(4-methylpyridin-3-yl)cinnolin-3-yl)cyclopropanecarboxamide] | < 6.00
21 | Cc1ccncc1-c1ccc2nnc(NC(=O)C3CC3)cc2c1 [Compound 27, N-(6-(4-Methylpyridin-3-yl)cinnolin-3-yl)cyclopropanecarboxamide] | 6.29

Molecular target: HPK full length, T165E S171E (Homo sapiens (Human), UniProt Q92918, S171E/T165E)
Sequence (Q92918 whole entry T165E/S171E): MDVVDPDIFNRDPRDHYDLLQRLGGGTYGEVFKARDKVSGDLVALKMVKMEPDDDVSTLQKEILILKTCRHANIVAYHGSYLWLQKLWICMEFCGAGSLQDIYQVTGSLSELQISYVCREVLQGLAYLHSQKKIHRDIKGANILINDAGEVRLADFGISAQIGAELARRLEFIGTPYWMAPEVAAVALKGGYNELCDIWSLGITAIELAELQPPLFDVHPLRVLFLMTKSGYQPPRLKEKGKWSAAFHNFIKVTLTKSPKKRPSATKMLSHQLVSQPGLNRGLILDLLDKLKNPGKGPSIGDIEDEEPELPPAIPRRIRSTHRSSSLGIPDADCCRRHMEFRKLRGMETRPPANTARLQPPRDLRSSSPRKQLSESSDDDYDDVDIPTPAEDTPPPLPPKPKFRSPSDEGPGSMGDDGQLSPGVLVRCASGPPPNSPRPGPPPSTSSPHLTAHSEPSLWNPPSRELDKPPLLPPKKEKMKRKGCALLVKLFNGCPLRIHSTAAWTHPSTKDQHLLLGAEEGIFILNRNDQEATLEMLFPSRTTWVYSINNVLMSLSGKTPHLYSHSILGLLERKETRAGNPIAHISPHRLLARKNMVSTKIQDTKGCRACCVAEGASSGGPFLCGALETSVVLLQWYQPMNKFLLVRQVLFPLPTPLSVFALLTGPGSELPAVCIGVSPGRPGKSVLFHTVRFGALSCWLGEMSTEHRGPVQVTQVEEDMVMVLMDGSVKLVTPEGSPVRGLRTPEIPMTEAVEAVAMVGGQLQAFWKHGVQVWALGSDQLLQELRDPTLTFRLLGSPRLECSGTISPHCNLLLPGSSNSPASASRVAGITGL
Assay: HPK1-FL HTRF Enzymatic Assay ("HTRF")
Type: biochemical
Details: H = HTRF; ATP 1 mM
Method: Example BI: HPK1-FL HTRF Enzymatic Assay (“HTRF”)
HPK-FL enzyme phosphorylates Biotin-SLP-76 substrate in the presence of ATP at 1 mM and varying concentrations of test compound. Product is detected by FRET using Eu-anti-pSLP76 Ab and SA-XL665. Also see www.cisbio.com/HTRF for additional HTRF technology information.
• Assay plate: White ProxiPlate 384 F (PerkinElmer cat #6008289) • Kinase: HPK full length double mutant • Substrate: Biotin-SLP76 • ATP: 100 mM ATP • BSG: 2% BSG • DMSO: DMSO (Sigma cat #34869-100ML) • Reaction Buffer: H2O/50 mM HEPES, pH 7.5/10 mM MgCl2/2 mM TCEP/0.01% Brij-35/0.01% BSG • Detection mix: Eu-anti-pSLP76/SA-XL665 (Cisbio, #610SAXAC)
To a 384 well Proxiplate with 80 nL compound or DMSO spotted on was added 4 μl/well kinase mix. The mixture was preincubated for 30 minutes and then 4 μl/well substrate mix was added. The solution was incubated for 60 min and then 4 μl/well detection mix was added. The solution was incubated for another 60 min. The plates were then loaded onto a Perkin Elmer Envision and the TR-FRET signal was measured at 615 and 665 nm. A ratio of […] was used to calculate the % activity at each concentration of compound.

Row | pKi | Compound
22 | 7.40 | Cc1c(N)cncc1-c1ccc2nnc(Nc3cc4n(n3)CC(=O)N(C(C)C)CC4)cc2c1 [Compound 28, 2-((6-(5-Amino-4-methylpyridin-3-yl)cinnolin-3-yl)amino)-6-isopropyl-5,6-dihydro-4H-pyrazolo[1,5-d][1,4]diazepin-7(8H)-one]
23 | 10.01 | Cc1c(N)cncc1-c1cc(N)c2nnc(Nc3cc4n(n3)CC(=O)N(C(C)C)CC4)cc2c1 [Compound 29, 2-((8-Amino-6-(5-amino-4-methylpyridin-3-yl)cinnolin-3-yl)amino)-6-isopropyl-5,6-dihydro-4H-pyrazolo[1,5-d][1,4]diazepin-7(8H)-one]

Tested on: primary human pan T cells
Assay: Human T-cell IL2 Induction Assay
Type: cell-based
Details: assayed concentration 2.78 μM; anti-CD3/anti-CD28 stimulation
Method: Example B3: Human T-cell IL2 Induction Assay
Assay Principle: Anti-CD3 and anti-CD28 activates TCR signaling in primary human pan T cells leading to IL-2 promoter induction. Secreted IL-2 in cell culture supernatant is detected by electrochemiluminescence using a capture antibody against IL-2 and an anti-IL-2 antibody labeled with SULFO-tag. Also see www.mesoscale.com for additional electrochemiluminescence technology information.
Assay Procedure: Incubate primary human pan T cells with varying concentrations of test compounds for 30 minutes in a humidified incubator at 37° C. and 5% CO2. Transfer cells to a plate pre-coated with a fixed concentration of anti-human CD3 (determined separately for each donor lot) and add soluble anti-human CD28 (final concentration=1 μg/ml). Stimulate cells in a humidified incubator at 37° C. and 5% CO2 for 4 hours. Transfer 25 μl of supernatant to a MSD single spot plate pre-coated with an anti-human IL-2 antibody. Incubate MSD plate overnight at 4° C. with gentle shaking. Wash MSD plate 4× with wash buffer. […] Wash MSD plate 4× with wash buffer and add 150 μl 2×MSD read buffer. Read on an MSD instrument. […]
Exemplary compounds of Formula (I) were tested in the human T-cell IL-2 induction assays. The % increase measured for IL-2 in cells treated by the test compounds relative to untreated cells are provided in Table B2 for certain compounds.

Row | Compound | % IL-2 increase relative to untreated cells
24 | Cc1c(N)cncc1-c1cc(N)c2nnc(NC(=O)[C@@H]3C[C@H]3C#N)cc2c1 (single isomer, unassigned) [Compound 23a] | 538%

Same assay, conditions: assayed concentration 8.33 μM; anti-CD3/anti-CD28 stimulation

Row | Compound | % IL-2 increase relative to untreated cells
25 | Cc1ccncc1-c1cc(N)c2nnc(NC(=O)C3CC3)cc2c1 [Compound 25, N-(8-Amino-6-(4-methylpyridin-3-yl)cinnolin-3-yl)cyclopropanecarboxamide] | 192%
